According to PubChem BioAssay AID2060511 (Molecular Pharmacology Branch, DTP, NCI, 2025):

Tested on: 422866-222-R5-J1-PDC spheroids with HUVEC/MSC, viability
Experiment: Anticancer human tumor 422866-222-R5-J1-PDC patient-derived pancreatic adenocarcinoma cell line growth inhibition [GQUAD]
Details: for IC50: curve of first compound; for viability, T/C: stronger effect = lower value
In short: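 Multi-cell-type spheroids of tumor cells with HUVEC and mesenchymal stem cells, treated with drug combinations. Concentrations descend in half-log steps from near clinical Cmax, or from 10 microM where Cmax is unknown; viability read-out.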

[1] = second compound 0.0316 µM, first compound 0.0316 µM
[2] = second compound 0.0316 µM, first compound 0.1 µM
[3] = second compound 0.0316 µM, first compound 0.316 µM
[4] = second compound 0.0316 µM, first compound 1 µM
[5] = second compound 0.0316 µM, first compound 3.16 µM
[6] = second compound 0.0316 µM, first compound 10 µM
[7] = second compound 0.1 µM, first compound 0.0316 µM
[8] = second compound 0.1 µM, first compound 0.1 µM
[9] = second compound 0.1 µM, first compound 0.316 µM
[10] = second compound 0.1 µM, first compound 1 µM
[11] = second compound 0.1 µM, first compound 3.16 µM
[12] = second compound 0.1 µM, first compound 10 µM
[13] = second compound 0.316 µM, first compound 0.0316 µM
[14] = second compound 0.316 µM, first compound 0.1 µM
[15] = second compound 0.316 µM, first compound 0.316 µM
[16] = second compound 0.316 µM, first compound 1 µM
[17] = second compound 0.316 µM, first compound 3.16 µM
[18] = second compound 0.316 µM, first compound 10 µM
[19] = second compound 1 µM, first compound 0.0316 µM
[20] = second compound 1 µM, first compound 0.1 µM
[21] = second compound 1 µM, first compound 0.316 µM
[22] = second compound 1 µM, first compound 1 µM
[23] = second compound 1 µM, first compound 3.16 µM
[24] = second compound 1 µM, first compound 10 µM
[25] = second compound 3.16 µM, first compound 0.0316 µM
[26] = second compound 3.16 µM, first compound 0.1 µM
[27] = second compound 3.16 µM, first compound 0.316 µM
[28] = second compound 3.16 µM, first compound 1 µM
[29] = second compound 3.16 µM, first compound 3.16 µM
[30] = second compound 3.16 µM, first compound 10 µM
[31] = second compound 10 µM, first compound 0.0316 µM
[32] = second compound 10 µM, first compound 0.1 µM
[33] = second compound 10 µM, first compound 0.316 µM
[34] = second compound 10 µM, first compound 1 µM
[35] = second compound 10 µM, first compound 3.16 µM
[36] = second compound 10 µM, first compound 10 µM
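Further: spheroids exposed to compounds for seven days before reading.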
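Wherever viability, T/C is given: percent viability relative to DMSO vehicle control taken as 100%.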

CC1COCCN1c1cc(C2(S(C)(=N)=O)CC2)nc(-c2ccnc3[nH]ccc23)n1 (stereo unspecified) + Cc1[nH]c2ccc(F)cc2c1-c1nc2c3cccnc3c3ncccc3c2[nH]1
IC50 (second compound 0.0316 µM): 3010 nM
IC50 (second compound 0.1 µM): 2350 nM
IC50 (second compound 0.316 µM): 5490 nM
IC50 (second compound 1 µM): 3470 nM
IC50 (second compound 3.16 µM): 2280 nM
IC50 (second compound 10 µM): > 10000 nM
viability, T/C [1]: 99.6%
viability, T/C [2]: 84.9%
viability, T/C [3]: 90.2%
viability, T/C [4]: 62.4%
viability, T/C [5]: 52%
viability, T/C [6]: 41.5%
viability, T/C [7]: 78.9%
viability, T/C [8]: 83.8%
viability, T/C [9]: 92.3%
viability, T/C [10]: 62.2%
viability, T/C [11]: 48.9%
viability, T/C [12]: 42.5%
viability, T/C [13]: 106%
viability, T/C [14]: 84.9%
viability, T/C [15]: 88.2%
viability, T/C [16]: 72.6%
viability, T/C [17]: 56.2%
viability, T/C [18]: 41.7%
viability, T/C [19]: 70.3%
viability, T/C [20]: 90.4%
viability, T/C [21]: 78.8%
viability, T/C [22]: 66.7%
viability, T/C [23]: 51.4%
viability, T/C [24]: 45.2%
viability, T/C [25]: 69.4%
viability, T/C [26]: 79.4%
viability, T/C [27]: 67.5%
viability, T/C [28]: 57.3%
viability, T/C [29]: 48.4%
viability, T/C [30]: 40.2%
viability, T/C [31]: 81.6%
viability, T/C [32]: 63.7%
viability, T/C [33]: 65.6%
viability, T/C [34]: 50.4%
viability, T/C [35]: 50.7%
viability, T/C [36]: 54.3%

O=C(c1cc(Cc2n[nH]c(=O)c3ccccc23)ccc1F)N1CCN(C(=O)C2CC2)CC1 + Cc1cnc(CNC(=O)c2c(=O)c3ccc(N4CCCN(C)CC4)nc3n3c2sc2ccccc23)cn1
IC50 (second compound 0.0316 µM): > 10000 nM
IC50 (second compound 0.1 µM): > 10000 nM
IC50 (second compound 0.316 µM): > 10000 nM
IC50 (second compound 1 µM): > 10000 nM
IC50 (second compound 3.16 µM): > 10000 nM
IC50 (second compound 10 µM): > 10000 nM
viability, T/C [1]: 108%
viability, T/C [2]: 89%
viability, T/C [3]: 84.8%
viability, T/C [4]: 83.4%
viability, T/C [5]: 80.5%
viability, T/C [6]: 65.2%
viability, T/C [7]: 91.9%
viability, T/C [8]: 84.4%
viability, T/C [9]: 80.5%
viability, T/C [10]: 83.7%
viability, T/C [11]: 80.2%
viability, T/C [12]: 77.6%
viability, T/C [13]: 74%
viability, T/C [14]: 77.9%
viability, T/C [15]: 78.8%
viability, T/C [16]: 84%
viability, T/C [17]: 85.2%
viability, T/C [18]: 77.1%
viability, T/C [19]: 76.2%
viability, T/C [20]: 76.6%
viability, T/C [21]: 84%
viability, T/C [22]: 76.5%
viability, T/C [23]: 80.3%
viability, T/C [24]: 70.4%
viability, T/C [25]: 83.3%
viability, T/C [26]: 73.7%
viability, T/C [27]: 83.2%
viability, T/C [28]: 91.2%
viability, T/C [29]: 83.6%
viability, T/C [30]: 76.5%
viability, T/C [31]: 70%
viability, T/C [32]: 79.4%
viability, T/C [33]: 77.8%
viability, T/C [34]: 72.7%
viability, T/C [35]: 89.5%
viability, T/C [36]: 69.2%

CCCS(=O)(=O)Nc1ccc(F)c(C(=O)c2c[nH]c3ncc(-c4ccc(Cl)cc4)cc23)c1F + Cc1[nH]c2ccc(F)cc2c1-c1nc2c3cccnc3c3ncccc3c2[nH]1
IC50 (second compound 0.0316 µM): 559 nM
IC50 (second compound 0.1 µM): 1020 nM
IC50 (second compound 0.316 µM): 1100 nM
IC50 (second compound 1 µM): 591 nM
IC50 (second compound 3.16 µM): 293 nM
IC50 (second compound 10 µM): 139 nM
viability, T/C [1]: 114%
viability, T/C [2]: 93.4%
viability, T/C [3]: 61.5%
viability, T/C [4]: 37.4%
viability, T/C [5]: 34.5%
viability, T/C [6]: 36.7%
viability, T/C [7]: 110%
viability, T/C [8]: 88.5%
viability, T/C [9]: 61.4%
viability, T/C [10]: 52.4%
viability, T/C [11]: 40.6%
viability, T/C [12]: 32.3%
viability, T/C [13]: 134%
viability, T/C [14]: 95.6%
viability, T/C [15]: 75.6%
viability, T/C [16]: 43.8%
viability, T/C [17]: 43.4%
viability, T/C [18]: 29%
viability, T/C [19]: 85.2%
viability, T/C [20]: 90.3%
viability, T/C [21]: 63.1%
viability, T/C [22]: 41.5%
viability, T/C [23]: 38.1%
viability, T/C [24]: 37%
viability, T/C [25]: 67.3%
viability, T/C [26]: 52.8%
viability, T/C [27]: 53.1%
viability, T/C [28]: 45.2%
viability, T/C [29]: 43%
viability, T/C [30]: 41.9%
viability, T/C [31]: 58.2%
viability, T/C [32]: 50.8%
viability, T/C [33]: 47.5%
viability, T/C [34]: 50.3%
viability, T/C [35]: 43.2%
viability, T/C [36]: 49.9%
